Data on five molecules can be found in paper PMC9909651 (Acta Pharmacologica Sinica, 2023).

Entries after “also recorded” stand apart in the source; their conditions may differ.

For test [1], the target named is VP30/NP interface (VP30_110–272 protein, NP-FITC peptide) (Zaire ebolavirus, UniProt Q05323). Description: biochemical. The class given is binding, Ebola virus.
In test [2] the target is VP30 protein (Zaire ebolavirus, UniProt Q05323). Type of test: binding, Ebola virus.
Test [3] concerns EBOV minigenome in Huh7-4P cells. The class given is cell-based, Ebola virus.
Test [4] shares this test system. Type of test: cell-based, Ebola virus. This is another data set of the same source.
The target of test [5] is T1, VP30_110–272 protein (Zaire ebolavirus, UniProt Q05323). Kind of test: biochemical. Type of test: binding, Ebola virus.
The target in test [6] is T1, VP30_110–272 protein. The class given is binding, Ebola virus.
Test [7] addresses NP-FITC (NP-derived VP30-binding peptide labelled with FITC) (Ebola virus (EBOV)). Description: fluorescence polarisation. (In general: Fluorescence polarisation rises when a labelled molecule tumbles more slowly, as on binding a larger partner.)
Test [8] addresses T2, Ebola virus VP30 110-272 protein (MBP tag removed) (Ebola virus (EBOV)), Q05323.
T2 chain: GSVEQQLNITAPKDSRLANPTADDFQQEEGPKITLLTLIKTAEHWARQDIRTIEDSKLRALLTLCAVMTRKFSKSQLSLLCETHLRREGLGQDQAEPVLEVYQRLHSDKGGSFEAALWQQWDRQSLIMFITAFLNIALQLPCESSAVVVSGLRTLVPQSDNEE
Description: fluorescence polarisation.

For the molecule `O=C(O)c1cnc(O)nc1O` [2,4-dihydroxypyrimidine-5-carboxylic acid], in test [1], the “competitive FP assay, result in words” value is given as “failed in the FP concentration gradient experiment”.

Turning to `Cc1cc(SCc2sc(-c3ccc(C(F)(F)F)c(F)c3)nc2C)ccc1OCC(=O)O` [GW0742], the “binding to VP30 already bound to Embelin or 8-gingerol, synergy SPR” value in test [2] is reported as “a reduction in binding was observed”. The “synergistic effect, in words” value in test [3] is “does not exhibit obvious synergistic effects”. The “antiviral activity in MG assay, in words” value in test [4] is “good antiviral activity”. Regarding `CCCCCCCCCCCC1=C(O)C(=O)C=C(O)C1=O` [Embelin], in test [1] (IC50, competitive FP assay), the IC50 came to 33.2 µM. The molecule further returned a Kd in test [5] of 4.62 µM. For the same molecule, the “effect on stability / melting temperature (Tm) of VP30, TSA” value in test [6] is “can specifically bind to VP30 and change its melting temperature Tm; also recorded: increased the stability of VP30 at pH 6.5, 7.0, 7.5 and 8.0”.

B1: Ebola virus VP30 110-272 protein (MBP tag removed), Q05323 110-272 (domain or fragment)
chain: T2 chain
In test [7], B1 registered an IC50 of 3.07 µM. PTVAPPAPVYR (modifications not checked) [unlabeled NP peptide (NP-derived VP30-binding peptide)]: the IC50 in test [8] turned out to be 0.33 µM.

In general, IC50 refers to the concentration that inhibits the measured activity by half. A high value points to lower potency. By Kd is commonly meant the constant that tells how readily two partners part at equilibrium. A higher Kd goes with a looser complex.
